The source of these data is patent US4421768A, “Fluorinated diamino-heptene and-heptyne derivatives” (Merrell Toraude et Compagnie, priority 1982, dated 1983).

Structures are written as SMILES. Where a name gives a salt, the structure may show the parent alone. Read-outs that look alike come from different tables or passages of the source.

In the experiment the target is T1, Ornithine decarboxylase (ODC) (Rattus norvegicus, UniProt P09057).
T1 construct: prepared from the livers of rats which have been injected with thioacetamide; from tissue; host or cells: liver of thioacetamide-injected rats, purified about ten fold by acid treatment at pH 4.6
T1 sequence (P09057 1-461): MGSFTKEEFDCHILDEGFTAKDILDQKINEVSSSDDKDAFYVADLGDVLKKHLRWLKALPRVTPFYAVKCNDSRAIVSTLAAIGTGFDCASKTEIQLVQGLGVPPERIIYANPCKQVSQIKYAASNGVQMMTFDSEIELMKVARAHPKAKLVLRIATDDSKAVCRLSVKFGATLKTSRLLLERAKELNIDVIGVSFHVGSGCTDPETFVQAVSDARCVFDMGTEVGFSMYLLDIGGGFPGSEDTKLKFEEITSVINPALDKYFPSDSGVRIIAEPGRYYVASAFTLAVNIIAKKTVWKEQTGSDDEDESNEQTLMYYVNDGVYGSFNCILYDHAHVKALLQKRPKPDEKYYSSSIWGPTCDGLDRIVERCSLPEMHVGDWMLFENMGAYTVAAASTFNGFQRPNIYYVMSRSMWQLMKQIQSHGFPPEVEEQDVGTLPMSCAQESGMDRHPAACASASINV
Kind of experiment: In vitro inhibition of ornithine decarboxylase (ODC) prepared from livers of thioacetamide-injected rats (time-dependent inactivation, 14CO2 release). It is filed as biochemical. The procedure: Ornithine decarboxylase (ODC) is prepared from the livers of rats which have been injected with thioacetamide (150 mg/kg of body weight) 18 hrs before sacrifice, and is purified about ten fold by acid treatment at pH 4.6 as described by Ono et al (Biochem. Biophys. Acta 284, 285 (1972)). The stock solution of ODC is comprised of protein (16 mg/mL), sodium phosphate buffer (30 mM, pH 7.1), dithiothreitol (5 mM) and pyridoxal phosphate (0.1 mM). The specific activity of this stock solution is 0.12 nmol of CO2 /min per mg of protein. For a typical experiment 320 μl of this stock solution are mixed at time 0 with 80 μl of a solution of the inhibitor in water and incubated at 37°. At different times 50 μl aliquots are transferred into a 1-mL assay medium containing sodium phosphate (30 mM, pH 7.1), dithiothreitol (5 mM), pyridoxal phosphate (0.1 mM), L-ornithine (0.081 μmol), and DL-[1-^14 C] ornithine (0.043 μmol, 58 Ci/mol, Amersham) in a closed vessel in which a filter paper moistered with 50 μl hyamine hydroxide (1 M) is fitted. The reaction is allowed to proceed for 60 min at 37° C. and then terminated by addition of 0.5 ml of 40% trichloroacetic acid. After an additional 30 min the CO2 absorbed on the filter paper is counted in a standard scintillation cocktail, KI (apparent dissociation constant) and .tau.50 (half-life, at infinite concentration of inhibitor are calculated according to the method of Kitz and Wilson (J. Biol. Chem., 237, 3245 (1962)).
When tested according to the above-described procedure, the compounds of Examples I and 2 gave the results shown below. Half-life (t1/2) at 10 μM is also set forth below.

Molecule `C#CC(N)CCC(N)C(F)F` (stereo not shown) [Example 2, 1,1-DIFLUORO-2,5-DIAMINO-6-HEPTYNE, DIHYDROCHLORIDE] returned a Ki of 1500 µM.

`C#CC(N)CCC(N)CF.Cl.Cl` (stereo not shown) [Example 1, 1-FLUORO-2,5-DIAMINO-6-HEPTYNE DIHYDROCHLORIDE]: under “rat liver ODC, 37°, pH 7.1, calculated by method of Kitz and Wilson, read-out: KI (apparent dissociation constant)”, the Ki was 50 µM. Moreover, for the setting “rat liver ODC, 37°, pH 7.1, infinite concentration of inhibitor, method of Kitz and Wilson”, the “T50 (.tau.50, half-life at infinite concentration of inhibitor)” value was 3.7 min. Besides, for the setting “rat liver ODC, 37°, pH 7.1, inhibitor 10 μM”, the “t1/2 (half-life at 10 μM)” value came out at 22 min.
